Results taken from patent publication EP2057185B1, “POLYMYXIN DERIVATIVES AND USES THEREOF” (Northern Antibiotics Oy, priority 2006, dated 2008).
Bridge positions count the residues as written; N and C are the ends. Square brackets hold non-standard residues; d marks the D form. Peptide text beside a SMILES is read from it. * marks the point of attachment. Octanoyl = CCCCCCCC(=O)*; Dab = NCC[C@H](N)C(=O)O; Abu = CC[C@H](N)C(=O)O

Assays:
E. coli ATCC25922 = test system: E. coli ATCC25922
Experimental: (§1) MICs were determined by using E-strips (Biodisk Ltd., Solna, Sweden) according to the manufacturer's instructions.
(§2) The strains originated from ATCC (11 strains), CCUG (11 strains), and NCTC (The National Collection of Type Cultures, Colindale, U.K.; 2 strains). Eight strains (the F-strains) were purchased from Mobidiag Ltd., Helsinki, Finland.

E. cloacae CCUG52947 = assay: MIC by E-strips on Mueller-Hinton agar with or without NAB7061 (4 µg/ml); format: cell-based, Enterobacter cloacae
Experimental: as §1, §2

E. cloacae F230 = assay: as above; format: cell-based, Enterobacter cloacae
Experimental: as §1, §2

E. cloacae F232 = assay: as above; format: cell-based, Enterobacter cloacae
Experimental: as §1, §2

Ac. baumannii ATCC19606 = assay: as above; format: cell-based, Acinetobacter baumannii
Experimental: as §1, §2

Ac. baumannii F263 = assay: as above; format: cell-based, Acinetobacter baumannii
Experimental: as §1, §2

P. vulgaris ATCC13315 = assay: as above; format: cell-based
Experimental: as §1, §2

S. maltophilia ATCC17444 = assay: as above; format: cell-based
Experimental: as §1, §2

P. mirabilis ATCC29906 = assay: as above; format: cell-based, Proteus mirabilis
Experimental: as §1, §2

[1] = test system: all strains (17) belonging to the group consisting of E. coli, K. oxytoca, E. cloacae, and C. freundii; assay: E-strip MIC, summary over 17 strains of Example 8; format: cell-based
Experimental: as §1, §2

[2] = test system: three strains of A. baumannii; assay: E-strip MIC, summary over A. baumannii strains of Example 8; format: cell-based, Acinetobacter baumannii; conditions: NAB7061 4 µg/ml
Experimental: as §1, §2

[3] = test system: carbapenem-resistant strains (F263, F264); assay: E-strip MIC of carbapenems, summary over resistant strains; format: cell-based, Acinetobacter baumannii; conditions: NAB7061 4 µg/ml
Experimental: as §1

E. coli IH3080 (K1:O18) = assay: Experimental E. coli peritonitis model in mice; format: in vivo; conditions: peritoneal fluid; 5 mg/kg body weight subcutaneous at 1 h; […] after the treatment
Experimental: A suspension of E. coli IH3080 (K1:O18) in saline (0.9% NaCl) was prepared from an overnight culture on a blood agar plate (Statens Serum Institut, Copenhagen, Denmark). All mice (female NMR1 from Harlan Scandinavia, Aller⌀d, Denmark; weight, 25-30 g) were inoculated intraperitoneally with 0.5 ml of the suspension containing 0.96 x 10^6 CFU per ml in the lateral lower quadrant of the abdomen. At 1 h, the CFU count was determined from three mice and the remaining mice (four mice per group) were treated with a subcutaneous injection of 0.2 ml of erythromycin solution in saline (corresponding to 5 mg/kg body weight) or NAB7061 solution in saline (corresponding to 5 mg/kg body weight), or both erythromycin and NAB7061 (corresponding to 5 mg/kg body weight of both drugs; given at two separate sites). Control group received two 0.2 ml injections of saline. At 4.5 h postinfection, all mice were anaesthetized with CO2 and sacrificed. Sterile saline (2 ml) was injected intraperitoneally and the abdomen was gently massaged before it was opened and the fluid sampled. Appropriate dilutions of the fluid were plated on blood agar plates, the plates were incubated overnight, and the colonies were counted.

K. pneumoniae ATCC13883 = assay: Growth inhibition around wells on LB agar plates; format: cell-based, Klebsiella pneumoniae; conditions: growth inhibition area around well
Experimental: (§3) From an overnight-grown culture of IH3080 on LB agar, a suspension of approx. 10^8 cells/ml was prepared in 0.9% NaCl. Aliquots of this suspension were then pipetted on the agar plates and the plates were gently shaken to spread the suspension evenly on the entire surface of the plate. Thereafter, the unabsorbed part of the suspension was removed by using a Pasteur pipette. After the surface had dried, small wells (diameter, 2 mm) were drilled on the plates (five wells per plate) by using a sterile sharp-edged narrow metal tube, single-use pipette tip, and vacuum suction. Samples (4 µl and 10 µl) of the peptide solution in 0.9% NaCl (at concentrations of 1 µg/ml and 0.1 µg/ml) were then pipetted to the wells and the sample fluids were allowed to absorb. Controls included 0.9% NaCl solution without the compound to be tested. The plates were then incubated for 18 h at 37°C whereafter the diameters of growth inhibition zones around each well were measured; the diameter of the well itself was […]. Finally, the diameters were converted to surface areas of growth inhibition (in square mm).
(§4) The susceptibility of eleven Gram-negative bacterial strains (nine different species) to NAB734 and polymyxin B was compared by using the susceptibility determination method described in Example 2. The strains included those belonging to the species of Serratia marcescens and Proteus mirabilis, both species generally known to be resistant to polymyxin. Furthermore, the susceptibility determination was also performed by using the Gram-positive bacterium, Staphylococcus aureus, also generally known to be polymyxin-resistant. Ten of the strains originated from ATCC (American Type Culture Collection, Manassas, VA, U.S.A.), and one from CCUG (Culture Collection of University of Gothenburg, Sweden). The source of E. coli IH3080 has been described in Example 2. Polymyxin B sulfate was from Sigma-Aldrich (St. Louis, MO, USA).

K. pneumoniae CCUG45421 = assay: Growth inhibition around wells on LB agar plates; format: cell-based, Klebsiella pneumoniae; conditions: growth inhibition area around well
Experimental: as §3, §4

K. oxytoca ATCC 13182 = assay: Growth inhibition around wells on LB agar plates; format: cell-based, Klebsiella oxytoca; conditions: growth inhibition area around well
Experimental: as §3
(§5) The susceptibility of eleven Gram-negative bacterial strains (nine different species) to NAB734 and polymyxin B was compared by using the susceptibility determination method described in Example 2. […]

C. freundii ATCC8090 = assay: Growth inhibition around wells on LB agar plates; format: cell-based, Citrobacter freundii; conditions: growth inhibition area around well
Experimental: as §3, §5

Compound: CCCCCCCC(=O)N[C@H](C(=O)N[C@@H](CC)C(=O)N[C@H]1CCNC(=O)[C@H]([C@@H](C)O)NC(=O)[C@H](CCN)NC(=O)[C@H](CCN)NC(=O)[C@H](CC(C)C)NC(=O)[C@@H](Cc2ccccc2)NC(=O)[C@H](CCN)NC1=O)[C@@H](C)O [NAB 7061, OA-Thr-Abu-cy[Dab-Dab-DPhe-Leu-Dab-Dab-Thr-]] (Octanoyl-T[Abu][Dab][Dab][dF]L[Dab][Dab]T; lactam 3-C)
- MIC (µg/ml) of clarithromycin in the presence of 4 µg/ml of NAB 7061 (E. coli ATCC25922): 0,094 - 0,125 µg/ml
- MIC (µg/ml) of rifampin in the presence of 4 µg/ml of NAB 7061 (E. coli ATCC25922): 0,01 - 0,047 µg/ml
- MIC (µg/ml) of rifampin in the presence of 4 µg/ml of NAB 7061 (P. vulgaris ATCC13315): 1-1,5 µg/ml
- Sensitization factor to clarithromycin (P. vulgaris ATCC13315; 4 µg/ml of NAB 7061): <2
- Sensitization factor to rifampin (P. vulgaris ATCC13315; 4 µg/ml of NAB 7061): <2
- MIC (µg/ml) of rifampin in the presence of 4 µg/ml of NAB 7061 (P. mirabilis ATCC29906): 1 to 6 µg/mL
- Sensitization factor to clarithromycin (P. mirabilis ATCC29906; 4 µg/ml of NAB 7061): <2
- Sensitization factor to rifampin (P. mirabilis ATCC29906; 4 µg/ml of NAB 7061): <2
- MIC of rifampin in the presence of NAB7061 (4 µg/ml) [1]: ≤ 0.125 µg/mL
- resulting MIC values to clarithromycin [2]: ≤ 0.5 µg/mL
- resulting MIC values to rifampin [2]: ≤ 0.125 µg/mL
- sensitization factor to both carbapenems (imipenem, meropenem) [3]: ≥ 4
- CFU counts (per ml) at 4.5 h postinfection (E. coli IH3080 (K1:O18)): 1.1 (± 0.6) x 10^6 per ml

Compound: Polymyxin B
- Antibacterial activity 4 µg (K. pneumoniae ATCC13883; 4 µg): 79 square millimeters
- Antibacterial activity 10 µg (K. pneumoniae ATCC13883; 10 µg): 113 square millimeters
- Antibacterial activity 4 µg (K. pneumoniae CCUG45421; 4 µg): 95 square millimeters
- Antibacterial activity 10 µg (K. pneumoniae CCUG45421; 10 µg): 133 square millimeters
- Antibacterial activity 4 µg (K. oxytoca ATCC 13182; 4 µg): 79 square millimeters
- Antibacterial activity 10 µg (K. oxytoca ATCC 13182; 10 µg): 104 square millimeters
- Antibacterial activity 4 µg (C. freundii ATCC8090; 4 µg): 95 square millimeters
- Antibacterial activity 10 µg (C. freundii ATCC8090; 10 µg): 154 square millimeters
